Measurements: ChEMBL document CHEMBL1134205, “Development of novel telomerase inhibitors based on a bisindole unit” (Bioorg Med Chem Lett, 2001)

Assays:
[1] = target: T1, Telomerase reverse transcriptase (Homo sapiens, UniProt O14746); test: Inhibitory concentration against human telomerase
[2] = target: T1, Telomerase reverse transcriptase; test: Inhibition ratio of human telomerase was determined by stretch PCR assay with use of 100 uM of the ligand

T1 sequence (O14746 whole entry): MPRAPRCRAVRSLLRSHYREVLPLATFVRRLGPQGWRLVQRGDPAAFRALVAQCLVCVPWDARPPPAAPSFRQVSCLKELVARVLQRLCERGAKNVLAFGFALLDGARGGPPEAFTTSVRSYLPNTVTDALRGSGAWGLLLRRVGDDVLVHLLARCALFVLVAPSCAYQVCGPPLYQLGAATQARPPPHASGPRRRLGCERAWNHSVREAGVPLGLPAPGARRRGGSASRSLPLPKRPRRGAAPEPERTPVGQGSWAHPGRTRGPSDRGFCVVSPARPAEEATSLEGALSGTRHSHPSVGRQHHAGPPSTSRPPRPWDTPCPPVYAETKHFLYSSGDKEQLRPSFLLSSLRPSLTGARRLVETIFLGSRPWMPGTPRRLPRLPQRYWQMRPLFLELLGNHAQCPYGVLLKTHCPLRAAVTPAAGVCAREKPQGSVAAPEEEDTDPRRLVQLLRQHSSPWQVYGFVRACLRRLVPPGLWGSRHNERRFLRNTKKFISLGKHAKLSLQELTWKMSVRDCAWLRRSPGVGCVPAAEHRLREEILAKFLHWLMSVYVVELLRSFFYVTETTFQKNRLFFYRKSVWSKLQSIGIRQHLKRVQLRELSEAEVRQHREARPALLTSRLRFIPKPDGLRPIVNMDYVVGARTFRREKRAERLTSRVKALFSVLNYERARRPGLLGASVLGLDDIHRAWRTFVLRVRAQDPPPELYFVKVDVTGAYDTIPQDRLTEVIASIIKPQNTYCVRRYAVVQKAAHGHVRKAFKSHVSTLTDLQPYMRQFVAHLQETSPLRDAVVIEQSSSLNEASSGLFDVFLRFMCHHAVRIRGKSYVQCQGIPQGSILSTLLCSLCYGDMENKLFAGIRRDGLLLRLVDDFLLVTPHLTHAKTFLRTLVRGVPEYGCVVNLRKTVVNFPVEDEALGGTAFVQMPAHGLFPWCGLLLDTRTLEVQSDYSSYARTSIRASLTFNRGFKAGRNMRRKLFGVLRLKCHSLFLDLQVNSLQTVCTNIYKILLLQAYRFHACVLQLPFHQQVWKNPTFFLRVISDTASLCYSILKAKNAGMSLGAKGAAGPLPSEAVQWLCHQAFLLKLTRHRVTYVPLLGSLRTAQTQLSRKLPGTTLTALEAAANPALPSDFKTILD

For `N#CCCOP(=O)(OCCCCCCCCCCCCNC(=O)Cc1cn(CCn2ccc3cc(Cl)ccc32)c2ccccc12)Oc1cccc(Cl)c1` (configuration not stated), the IC50 [1] was over 100 µM.
In the case of `N#CCCOP(=O)(O)OCCCCCCCCCCCCNC(=O)Cc1cn(CCn2ccc3cc(Cl)ccc32)c2ccccc12`, the IC50 [1] is reported as over 100 µM.
`O=C(O)CCCCCCCCCCCNC(=O)Cc1cn(CCCn2cccc2)c2ccccc12` showed an IC50 [1] of over 100 µM and an inhibition [2] of 0%.
`Cc1c2n(c3ccccc13)CCCn1c-2c(CC(=O)NCCCCCCCCCCCC(=O)O)c2ccccc21` gave an IC50 [1] of 50 µM and an inhibition [2] of 82%.
Compound `O=C(Cc1cn(CCn2ccc3cc(Cl)ccc32)c2ccccc12)NCCCCCCCCCCCCOP(=O)(O)Oc1ccccc1` has an IC50 [1] of 6.7 µM.
`O=C(Cc1cn(CCn2ccc3cc(Cl)ccc32)c2ccccc12)NCCCCCCCCCCCCOP(=O)(O)Oc1cccc(Cl)c1` showed an IC50 [1] of 2.5 µM.
Work on `O=C(O)CCCCCCCCCCCNC(=O)Cc1cn(CCCOC2CCCCC2)c2ccccc12` yielded an IC50 [1] of 67 µM and an inhibition [2] of 75%.
Compound `O=C(O)CCCCCCCCCCCNC(=O)Cc1cn(CCOc2cccc3ccccc23)c2ccccc12` has an IC50 [1] of 35 µM and an inhibition [2] of 65%.
Work on `O=C(O)CCCCCCCCCCCNC(=O)Cc1c2n(c3ccccc13)CCn1c-2cc2ccccc21` yielded an IC50 [1] of 62 µM and an inhibition [2] of 62%.
Compound `Cc1cn(CCn2cc(CC(=O)NCCCCCCCCCCCC(=O)O)c3ccccc32)c2ccccc12` has an IC50 [1] of over 100 µM and an inhibition [2] of 7%.
With `O=C(O)CCCCCCCCCCCNC(=O)Cc1cn(CCOc2ccccc2)c2ccccc12` the inhibition [2] was 0%.
`O=C(O)CCCCCCCCCCCNC(=O)Cc1cn(CCCn2ccc3ccccc32)c2ccccc12` showed an IC50 [1] of 92 µM and an inhibition [2] of 46%.
`O=C(Cc1cn(CCCn2cccc2)c2ccccc12)NCCCCCCCCCCCOP(=O)(O)c1ccccc1Cl` showed an IC50 [1] of 4.2 µM.
`O=C(O)CCCCCCCCCCCNC(=O)Cc1cn(CCCOc2ccccc2)c2ccccc12` was tested, and the IC50 [1] was 33 µM and the inhibition [2] was 75%.
Work on `O=C(O)CCCCCCCCCCCNC(=O)Cc1cn(CCCN2CCCC2)c2ccccc12` yielded an IC50 [1] of over 100 µM and an inhibition [2] of 13%.
Work on `O=C(Cc1cn(CCn2ccc3cc(Cl)ccc32)c2ccccc12)NCCCCCCCCCCCCOP(=O)(O)OC1CCCCC1` yielded an IC50 [1] of 8.7 µM.
`Cc1cn(CCCn2cc(CC(=O)NCCCCCCCCCCCC(=O)O)c3ccccc32)c2ccccc12` gave an IC50 [1] of 20 µM and an inhibition [2] of 100%.
`O=C(O)CCCCCCCCCCCNC(=O)COc1c(-c2cc3ccccc3[nH]2)[nH]c2ccccc12` gave an IC50 [1] of over 100 µM.
Compound `Cc1cn(CCCn2cc(CC(=O)NCCCCCCCCCCCCOP(=O)(O)Oc3cccc(Cl)c3)c3ccccc32)c2ccccc12` has an IC50 [1] of 3.4 µM.
In the case of `Cc1cn(CCCn2cc(CC(=O)NCCCCCCCCCCCCOP(=O)(OCCC#N)Oc3cccc(Cl)c3)c3ccccc32)c2ccccc12` (configuration not stated), the IC50 [1] is reported as over 100 µM.
With `O=C(O)CCCCCCCCCCCNC(=O)Cc1cn(CCn2ccc3ccccc32)c2ccccc12` the IC50 [1] was 41 µM and the inhibition [2] was 77%.
